Test results reported in patent US12427196B2, “Macromolecular prodrugs for light-emitting diodes and uses thereof” (Children's Medical Center Corporation, priority 2020, dated 2025).

Legend:
PC12 cells = experiment: Cytotoxicity, MTS cell proliferation assay; format: cell-based; conditions: 24 h
Procedure: (§1) Before testing the material in vivo, test materials were evaluated in vitro with C2C12 and PC12 cells to assess cytotoxicity to muscle and nerve cells respectively. Different compounds were directly added into the cell culture media (1 mg/mL, 0.33 mg/mL and 0.11 mg/mL) and incubated in the media bathing the cells (i.e. in direct contact with them) in conventional cell culture wells. After 24 h, cell viabilities were evaluated with the MTS assay, and their survival expressed as percentages of results in untreated cells. […] Due to the high molecular weight of the polymer-containing samples, their molar concentrations were perforce lower than that of the small molecule tetracaine. It would not be practical to culture cells in media containing the polymer concentration to be used in vivo (20 wt %), which would be very viscous. Therefore, test materials were placed in Transwell® inserts such that they were in continuity with the cell culture media.
(§2) Cytotoxicity analysis. For the “direct contact” experiments, the cells were incubated in 48-well plates with concentration of formulations of 1, 0.33, 0.11 mg/mL in the media for all samples. For the “indirect contact” experiments, the cells were incubated in 24-well plates with a transwell in each well, in which 50 μL of tetracaine (0.5% wt %) or P407 (20% wt %) or P407-CM-T (20% wt %) was applied. After 24 h, the cell viabilities were evaluated with MTS assay as percentages of the control.

C2C12 cells = experiment: Cytotoxicity, MTS cell proliferation assay; format: cell-based; conditions: 24 h
Procedure: as §1, §2

rat footpad = experiment: Phototriggered local anesthesia (nerve block) after rat footpad injection, Touch Test neurobehavioral testing; format: in vivo; conditions: irradiance 0 W/cm^2, irradiation duration 0 min (no irradiation)
Procedure: The effectiveness of light-triggered anesthesia using P407-CM-T was assessed in vivo after footpad injection in the rat (Table 1);^17, 28-32 this model was selected because it was anticipated that 400 nm light would not penetrate deeply into tissue.^33
A hundred microliters of 20 wt % P407-CM-T were injected into the plantar aspect of the rat hind paw. […] Irradiation of the site of administration immediately after injection with a 400 nm LED at 200 mW/cm^2 for two minutes caused local anesthesia lasting 19.5±4.5 min (FIGS. 5A-5B). Local anesthesia was prolonged to 36.5±8.9 min (FIG. 5B) by increasing the irradiance to 300 mW/cm^2 also for 2 minutes (p<0.05 compared to 200 mW/cm^2). Extending the irradiation time to five minutes at 300 mW/cm^2 further extended local anesthesia to 66.7±24 min (p<0.05 compared to 300 mW/cm^2 for 2 min, FIG. 5B).
It would be important for a light-triggerable local anesthetic system to be triggered repeatedly, so as to be able to treat pain over an extended period. To assess the ability of P407-CM-T to provide repeated on-demand local anesthesia, animals were injected in the footpad with 0.1 mL of 20 wt % P407-CM-T (FIG. 4D). […] The animal was then irradiated at the site of injection with 400 nm light at 300 mW/cm^2 for 2 min. […]

CCCCNc1ccc(C(=O)OCCN(C)C)cc1 [Tetracaine, tetracaine]
Cell viability (MTS) (PC12 cells; PC12, Transwell inserts, tetracaine 0.5% wt %, P407 20% wt %, P407-CM-T 20% wt %): greatly reduced cell survival | Cytotoxicity (cell survival, MTS) (PC12 cells; PC12, direct contact, 1, 0.33 and 0.11 mg/mL in media): high cytotoxicity | Cell viability (MTS) (C2C12 cells; C2C12, Transwell inserts, tetracaine 0.5% wt %, P407 20% wt %, P407-CM-T 20% wt %): greatly reduced cell survival | Cytotoxicity (cell survival, MTS) (C2C12 cells; C2C12, direct contact, 1, 0.33 and 0.11 mg/mL in media): high cytotoxicity | Duration of Block (rat footpad): 28.6 ± 7.1 min
